Results reported in patent US8258309B2, “Azapeptide derivatives” (priority 2007, dated 2012).
Read-outs that look alike come from different tables or passages of the source.

Key:
[1] = Microsomal assay: stability in human liver microsomes; type: in vitro ADME; settings: for half-life at 1 μM: liver microsomes
Protocol: Microsomal Assay. Human liver microsomes (20 mg/mL, pool of 50 individuals) were obtained from Xenotech LLC (Lenexa, Kans.). The incubation mixtures are prepared as follows. Stock solutions (10 mM) solutions of test Compounds 103, 106, 122 and of atazanavir were prepared in DMSO. The 10 mM stock solutions were diluted to 1 mM in acetonitrile (ACN). […] The microsome-test compound mixtures were added to wells of a 2 mL 96-well deep well polypropylene plate in triplicate. The plate was warmed to 37° C. before initiating the reactions by addition of prewarmed NADPH in 0.1 M potassium phosphate buffer, pH 7.4, containing 3 mM MgCl2. The final reaction mixture composition contained: • Liver Microsomes 0.5 mg/mL • NADPH 2 mM • Potassium Phosphate, pH 7.4 100 mM • Magnesium Chloride 3 mM • Test Compound 1.0 μM. The reaction mixtures were incubated at 37° C. and 50 μL aliquots were removed at 0, 3, 7, 12, 20, and 30 minutes and added to shallow-well 96-well plates which contained 50 μL of ice-cold ACN with internal standard to stop the reactions. The plates were stored at −20° C. for 30 minutes, after which 100 μL of water was added to the wells of the plate before centrifugation to pellet precipitated proteins. Supernatants were transferred to another 96-well plate and analyzed for amounts of parent remaining by LC-MS/MS using an Applied Biosystems API 4000 mass spectrometer. […] Data analysis was performed using Microsoft Excel Software. […] The results are shown in FIGS. 2 and 3 and in Table 3, below: […]

[2] = Chimp pharmacokinetics Run A, IV or PO co-dosing of atazanavir and Compounds 114, 120, 122; type: in vivo, chimpanzee; settings: for concentration at 24 h: concentration detected intact in urine
Protocol: Chimp Pharmacokineties. Run A: A 4 mg/mL solution of atazanavir and each of Compounds 114, 120 and 122 were prepared in 10% DMI (dimethyl isosorbide), 15% EtOH, 35% PG in D5W. Specifically, for each compound, 240 mgs of compound was dissolved in a solution composed of 6 mL of DMI, 9 mL of EtOH and 21 mL PG. Once the compound was fully dissolved, 24 mL of D5W was added and the solution mixed.
Fifty-five mL of each drug solution is then combined and the mixture was sterile filtered using a 0.2 μm filter. This produced 220 mL of a 1:1:1:1 mixture atazanavir:Compound 114:Compound 120:Compound 122. The final concentration of each drug in the solution was 1 mg/mL. Each animal received 50 mL of this solution through either IV or PO routes.
Four chimps (two male and two female) were used in this study and were fasted overnight prior to administration of the compound solution. Animals were sedated with ketamine and/or telazol prior to dosing. Intravenous dosing was achieved by IV infusion over 30 minutes.
Approximately 4.5 mL of blood was collected into vacutainer tubes with sodium heparin as an anticoagulant at 0 (preinfusion), 15 min., 29.5 min (immediately before the end of the infusion), and then at 6, 15, 30, and 45 minutes, and 1, 2, 4, 6, 8, 10, 12, 24 hours after the infusion is stopped. A similar procedure was used to collect blood after oral dosing with samples taken at 0 (predose), 15, and 30 minutes, and at 1, 1.5, 2, 4, 6, 8, 10, 12, 24 hours postdose. Following sample collection, the vacutainer tubes were rocked by hand several times to insure adequate mixing. Blood samples were placed immediately on wet ice and centrifuged within 1 hour from time of collection. Following centrifugation, the resulting plasma was stored frozen at −70° C. until analysis. The results are summarized in FIGS. 4 and 5 and tables 6 and 7.

HIV-1RF = assay: HIV anti-viral activity in CEM-SS cells infected with HIV-1 (XTT); type: cell-based
Protocol: The HIV antiviral activity of compound of the present invention was tested in CEM-SS cells infected with HIV-1. CEM-SS cells were passaged in T-75 flasks in RPMI 1640 medium supplemented with 10% heat inactivated fetal bovine serum, 2 mmol/L L-glutamine, 100 U/mL penicillin and 100 flg/mL streptomycin prior to use in the antiviral assay. On the day preceding the assay, the cells were split 1:2 to assure they were in an exponential growth phase at the time of infection. Total cell and viability quantification was performed using a hemocytometer and Trypan Blue dye exclusion. Cell viability was greater than 95% for the cells to be utilized in the assay. The cells were resuspended at 5×10^4 cells per mL in tissue culture medium and added to the drug-containing microtiter plates in a volume of 50 μL.
The virus used for the assay was the lymphocyte-tropic virus strain HIV-IRF. The virus was obtained from the NIH AIDS Research and Reference Reagent Program and stock virus pools were produced in CEM-SS cells. A pre-titered aliquot of virus was removed from the freezer (−80° C.) and allowed to thaw slowly to room temperature in a biological safety cabinet. Virus was resuspended and diluted into tissue culture medium such that the amount of virus added to each well in a volume of 50 μL was the amount determined to yield 85 to 95% cell killing at 6 days post-infection.
Each plate contains cell control wells (cells only), virus control wells (cells plus virus), compound toxicity wells (cells plus compound only), compound colorimetric control wells (compound only) as well as experimental wells (compound plus cells plus virus). Samples were tested in triplicate with eleven half-log dilutions per compound starting at 0.1 μM of compound. Compounds 104, 120 and 122 were tested, as was atazanavir and AZT. […]
Following incubation at 37° C. in a 5% CO2 incubator, the test plates were stained with the tetrazolium dye XTT (2,3-bis(2-methoxy-4-nitro-5sulfophenyl)-5-[(phenylamino)carbonyl]-2H-tetrazolium hydroxide). XTT-tetrazolium was metabolized by the mitochondrial enzymes of metabolically active cells to a soluble formazan product, allowing rapid quantitative analysis of the inhibition of HIV induced cell killing by anti-HIV test substances. XTT solution was prepared daily as a stock of 1 mg/mL in RPMI 1640. Phenazine methosulfate (PMS) solution was prepared at 0.15 mg/mL in PBS and stored in the dark at −20° C. XTT/PMS stock was prepared immediately before use by adding 40 μL of PMS per mL of XTT solution. Fifty microliters of XTT/PMS was added to each well of the plate and the plate was reincubated for 4 hours at 37° C. Plates were sealed with adhesive plate sealers and shaken gently or inverted several times to mix the soluble formazan product and the plate was read spectrophotometrically at 450/650 nm with a Molecular Devices Vmax plate reader.
Raw data was collected from the Softmax Pro 4.6 software and imported into a Microsoft Excel 2003 spreadsheet for analysis by linear curve fit calculations.

[3] = human, pH 7.4, human liver microsomes 0.5 mg/mL, 1.0 μM test compound, first run (Table 2), read-out: T1/2 ± SD
[4] = human, pH 7.4, human liver microsomes, repeated assay (Table 3), read-out: t1/2 (min) Avg ± SD (n = 3)
[5] = Human immunodeficiency virus 1, CEM-SS, +0.5 mg/mL AAGP
[6] = Human immunodeficiency virus 1, CEM-SS, +10 mg/mL HAS
[7] = Human immunodeficiency virus 1, CEM-SS, +AAGP + HSA
[8] = Human immunodeficiency virus 1, CEM-SS, No Serum Protein Added (cell culture medium)

Row | half-life at 1 μM [1, 3] | half-life at 1 μM [1, 4] | concentration detected intact in urine ([2]; chimpanzee, in vivo, iv, 24 h) | concentration at 24 h ([2]; chimpanzee, in vivo, iv) | concentration detected intact in urine ([2]; chimpanzee, in vivo, po, 24 h) | concentration at 24 h ([2]; chimpanzee, in vivo, po) | EC50 (HIV-1RF; [5]) | EC50 (HIV-1RF; [6]) | EC50 (HIV-1RF; [7]) | EC50 (HIV-1RF; [8]) | half-life as compared to atazanavir ([1]; human liver microsomes, first run) | increase in half-life as compared to atazanavir ([1]; human, 1 μM, pH 7.4) | Ratio of urine concentration, compound:Atazanavir ([2]; chimp A242E, PO, 24 hours, Run A) | Ratio of urine concentration, compound:Atazanavir ([2]; chimp A336C, IV, 24 hours, Run A) | Ratio of urine concentration, compound:Atazanavir ([2]; chimpanzee, in vivo, iv, 24 h) | Ratio of urine concentration, compound:Atazanavir ([2]; chimpanzee, in vivo, po, 24 h) | EC50 (HIV-1RF; +10 mg/mL HAS) | EC50 (HIV-1RF; No Serum Protein Added (cell culture medium)) | Compound | fold less potent in the presence of HSA than in cell culture medium alone (HIV-1RF; 10 mg/mL HSA versus cell culture medium)
1 | 18.6 ± 2.99 min | 18.8 ± 0.6 min | 1790 ng/mL | 2000 ng/mL | 516 ng/mL | 569 ng/mL | 4 nM | 4 nM | 8 nM | 1 nM |  |  |  |  |  |  |  |  | COC(=O)N[C@H](C(=O)N[C@@H](Cc1ccccc1)[C@@H](O)CN(Cc1ccc(-c2ccccn2)cc1)NC(=O)[C@@H](NC(=O)OC)C(C)(C)C)C(C)(C)C [Atazanavir, atazanavir, reference compound] | 
2 | 35.4 ± 1.68 min | 28.3 ± 0.3 min | 3250 ng/mL | 3130 ng/mL | 1180 ng/mL | 1280 ng/mL | 2 nM | 0.9 nM | 6 nM | < 0.4 nM | increased half-life | ~67% | 2.25 | 1.82 | 1.57 | 2.29 | 0.8 nM | 0.4 nM | [2H]C([2H])([2H])OC(=O)N[C@H](C(=O)N[C@@H](Cc1ccccc1)[C@@H](O)CN(Cc1ccc(-c2ccccn2)cc1)NC(=O)[C@@H](NC(=O)OC([2H])([2H])[2H])C(C([2H])([2H])[2H])(C([2H])([2H])[2H])C([2H])([2H])[2H])C(C([2H])([2H])[2H])(C([2H])([2H])[2H])C([2H])([2H])[2H] [Compound 122, 1,14-Di(methyl-d3)(3S,8S,9S,12S)-3,12-bis[(1,1-dimethylethyl)-d9]-8-hydroxy-4,11-dioxo-9-(phenylmethyl)-6-[[4-(2-pyridinyl)phenyl]methyl]-2,5,6,10,13-pentaazatetradecanedioate] | two- to greater than three-fold less potent
